Laboratory results as given in patent US11149030B2, “Plants having increased tolerance to herbicides” (BASF AGRO B.V., priority 2016, dated 2021).
“And” between values parts separate entries of the source, which are not always exact repeats. Equal entries are not always repeated.

Tested on: transgenic T2 Arabidopsis plants
Experiment: Greenhouse spray of transgenic T2 Arabidopsis plants, herbicide injury 0 to 100% phytotox rating (Table A)
Assay type: in vivo
Settings: 14 days after treatment
Protocol: Additionally, transgenic T2 Arabidopsis plants are tested for improved tolerance to herbicides in greenhouse studies with the following herbicides: methyl 2-[2-chloro-5-[3-chloro-5-(trifluoromethyl)-2-pyridyl]-4-fluoro-phenoxy]-2-methoxy-acetate, and photosynthesis inhibitor diuron as negative control.
Table A: Transgenic T2 Arabidopsis plants, four weeks old, were sprayed in the greenhouse with the indicated amount of compound+1% (v/v) MSO. Herbicide injury was evaluated 14 days after treatment with a 0 to 100% phytotox rating scale where 0 is no injury relative to an unsprayed wild type check and 100% is completely dead.

COC(=O)C(OC)Oc1cc(-c2ncc(C(F)(F)F)cc2Cl)c(F)cc1Cl (stereo not drawn) [methyl 2-[2-chloro-5-[3-chloro-5-(trifluoromethyl)-2-pyridyl]-4-fluoro-phenoxy]-2-methoxy-acetate]
Herbicide injury, 0 to 100% phytotox rating (construct ALOMY_PPO2 F438I, 50 g ai/ha + 1% (v/v) MSO): 48%
Herbicide injury, 0 to 100% phytotox rating (construct ALOMY_PPO2 F438I, 100 g ai/ha + 1% (v/v) MSO): 64%
Herbicide injury, 0 to 100% phytotox rating (construct ALOMY_PPO2 F438I, 200 g ai/ha + 1% (v/v) MSO): 79%
Herbicide injury, 0 to 100% phytotox rating (construct ALOMY_PPO2 F438M, 50 g ai/ha + 1% (v/v) MSO): 30%
Herbicide injury, 0 to 100% phytotox rating (construct ALOMY_PPO2 F438M, 100 g ai/ha + 1% (v/v) MSO): 43%
Herbicide injury, 0 to 100% phytotox rating (construct ALOMY_PPO2 F438M, 200 g ai/ha + 1% (v/v) MSO): 69%
Herbicide injury, 0 to 100% phytotox rating (construct ALOMY_PPO2 F438V, 50 g ai/ha + 1% (v/v) MSO): 36%
Herbicide injury, 0 to 100% phytotox rating (construct ALOMY_PPO2 F438V, 100 g ai/ha + 1% (v/v) MSO): 55%
Herbicide injury, 0 to 100% phytotox rating (construct ALOMY_PPO2 F438V, 200 g ai/ha + 1% (v/v) MSO): 69%
Herbicide injury, 0 to 100% phytotox rating (construct ALOMY_PPO2 L415A_F438M, 50 g ai/ha + 1% (v/v) MSO): 23%
Herbicide injury, 0 to 100% phytotox rating (construct ALOMY_PPO2 L415A_F438M, 100 g ai/ha + 1% (v/v) MSO): 28%
Herbicide injury, 0 to 100% phytotox rating (construct ALOMY_PPO2 L415A_F438M, 200 g ai/ha + 1% (v/v) MSO): 39%
Herbicide injury, 0 to 100% phytotox rating (construct ALOMY_PPO2 L415E_F438M, 50 g ai/ha + 1% (v/v) MSO): 15%
Herbicide injury, 0 to 100% phytotox rating (construct ALOMY_PPO2 L415E_F438M, 100 g ai/ha + 1% (v/v) MSO): 29%
Herbicide injury, 0 to 100% phytotox rating (construct ALOMY_PPO2 L415E_F438M, 200 g ai/ha + 1% (v/v) MSO): 43%
Herbicide injury, 0 to 100% phytotox rating (construct ALOMY_PPO2 L415G_F438M (two table lines), 50 g ai/ha + 1% (v/v) MSO): 36% and 26%
Herbicide injury, 0 to 100% phytotox rating (construct ALOMY_PPO2 L415G_F438M (two table lines), 100 g ai/ha + 1% (v/v) MSO): 46% and 34%
Herbicide injury, 0 to 100% phytotox rating (construct ALOMY_PPO2 L415G_F438M (two table lines), 200 g ai/ha + 1% (v/v) MSO): 59% and 46%
Herbicide injury, 0 to 100% phytotox rating (construct ALOMY_PPO2 L415Q_F438M, 50 g ai/ha + 1% (v/v) MSO): 18%
Herbicide injury, 0 to 100% phytotox rating (construct ALOMY_PPO2 L415Q_F438M, 100 g ai/ha + 1% (v/v) MSO): 23%
Herbicide injury, 0 to 100% phytotox rating (construct ALOMY_PPO2 L415Q_F438M, 200 g ai/ha + 1% (v/v) MSO): 41%
Herbicide injury, 0 to 100% phytotox rating (construct ALOMY_PPO2 R137L_F438L, 50 g ai/ha + 1% (v/v) MSO): 55%
Herbicide injury, 0 to 100% phytotox rating (construct ALOMY_PPO2 R137L_F438L, 100 g ai/ha + 1% (v/v) MSO): 59%
Herbicide injury, 0 to 100% phytotox rating (construct ALOMY_PPO2 R137L_F438L, 200 g ai/ha + 1% (v/v) MSO): 71%
Herbicide injury, 0 to 100% phytotox rating (construct ALOMY_PPO2 R137L_F438M, 50 g ai/ha + 1% (v/v) MSO): 50%
Herbicide injury, 0 to 100% phytotox rating (construct ALOMY_PPO2 R137L_F438M, 100 g ai/ha + 1% (v/v) MSO): 68%
Herbicide injury, 0 to 100% phytotox rating (construct ALOMY_PPO2 R137L_F438M, 200 g ai/ha + 1% (v/v) MSO): 70%
Herbicide injury, 0 to 100% phytotox rating (construct ALOMY_PPO2 R137L_F438V, 50 g ai/ha + 1% (v/v) MSO): 39%
Herbicide injury, 0 to 100% phytotox rating (construct ALOMY_PPO2 R137L_F438V, 100 g ai/ha + 1% (v/v) MSO): 58%
Herbicide injury, 0 to 100% phytotox rating (construct ALOMY_PPO2 R137L_F438V, 200 g ai/ha + 1% (v/v) MSO): 65%
Herbicide injury, 0 to 100% phytotox rating (construct AMATU_PPO2 L397C_F420M, 50 g ai/ha + 1% (v/v) MSO): 58%
Herbicide injury, 0 to 100% phytotox rating (construct AMATU_PPO2 L397C_F420M, 100 g ai/ha + 1% (v/v) MSO): 63%
Herbicide injury, 0 to 100% phytotox rating (construct AMATU_PPO2 L397C_F420M, 200 g ai/ha + 1% (v/v) MSO): 71%
Herbicide injury, 0 to 100% phytotox rating (construct AMATU_PPO2 L397D_F420V, 50 g ai/ha + 1% (v/v) MSO): 49%
Herbicide injury, 0 to 100% phytotox rating (construct AMATU_PPO2 L397D_F420V, 100 g ai/ha + 1% (v/v) MSO): 59%
Herbicide injury, 0 to 100% phytotox rating (construct AMATU_PPO2 L397D_F420V, 150 g ai/ha + 1% (v/v) MSO): 67%
Herbicide injury, 0 to 100% phytotox rating (construct AMATU_PPO2 L397E_F420M, 50 g ai/ha + 1% (v/v) MSO): 59%
Herbicide injury, 0 to 100% phytotox rating (construct AMATU_PPO2 L397E_F420M, 100 g ai/ha + 1% (v/v) MSO): 68%
Herbicide injury, 0 to 100% phytotox rating (construct AMATU_PPO2 L397E_F420M, 200 g ai/ha + 1% (v/v) MSO): 79%
Herbicide injury, 0 to 100% phytotox rating (construct AMATU_PPO2 L397E_F420V, 50 g ai/ha + 1% (v/v) MSO): 60%
Herbicide injury, 0 to 100% phytotox rating (construct AMATU_PPO2 L397E_F420V, 100 g ai/ha + 1% (v/v) MSO): 76%
Herbicide injury, 0 to 100% phytotox rating (construct AMATU_PPO2 L397E_F420V, 200 g ai/ha + 1% (v/v) MSO): 85%
Herbicide injury, 0 to 100% phytotox rating (construct AMATU_PPO2 L397G_F420M, 50 g ai/ha + 1% (v/v) MSO): 40%
Herbicide injury, 0 to 100% phytotox rating (construct AMATU_PPO2 L397G_F420M, 100 g ai/ha + 1% (v/v) MSO): 56%
Herbicide injury, 0 to 100% phytotox rating (construct AMATU_PPO2 L397G_F420M, 200 g ai/ha + 1% (v/v) MSO): 66%
